Assay results reported in patent publication US20220183290A1, “CHEMICALS WHICH ALTER THE PRODUCTION OF METABOLITES IN CULTIVATED PLANTS” (priority 2017, published 2022).

Experiments:
[1] = system: Cannabis sp. hemp varietal clones (Happy Camper); assay: Example 1: indoor cultivation experiment, elicitor treatments, secondary metabolite content of flowers; format: in vivo; settings: for terpene production (in words): applied alone or in conjunction with other elicitor treatments; for Total terpene production, change: either MeJA and/or SA (pooled) vs control or si only
From the text: Applicant performed an indoor cultivation experiment with 30 identical Cannabis sp. hemp varietal clones (Happy Camper, CBDRx LLC, Colorado). Each of the thirty plants was randomly assigned to one of six treatment groups to test the efficacy and effectiveness of each elicitor compound in isolation or in combination. Plants were maintained in an isolated indoor growing environment under eight, 600-watt double-ended electronic high pressure sodium lamps (Gavita International B.V) under a photoperiod of 12 hours of light per 24-hour day and potted in 1-gallon black plastic pots with a 55% coco coir/45% perlite media (Miller Soils LLC, Longmont, Colo., USA), then transplanted into 10-gallon fabric pots (Smart Pot, High Caliper Growing, USA) filled with a mixture of 75% coco coir and 25% cork (DNA-Mills Ltd, London, England), irrigated as needed with tap water and fertilized consistently to maintain good health with a 4-20-39 base nutrient supplemented with 15-0-0 Calcium Nitrate and commercially available magnesium sulfate (Hydro Gardens International, Colorado Springs, Colo.) at a rate of 300-500 ppm (TDS) as needed. A microbial inoculant (Tribus Original, Impello Biosciences, Ft. Collins, Colo.) was applied at a rate of 1 mL/gallon of nutrient solution every watering to improve plant health. Drip emitters and an automated watering system supplied water and nutrients equally to each plant. Temperatures in the growing environment were maintained at 75° F.±15° F. with a relative humidity range of 30-60%. Every 14 days of growth, all plants were supplemented with a fish protein hydrolysate at a rate of 5 ml/gallon of the previously mentioned nutrient solution to improve nutrition (Innate Bloom 4-2-1, Impello Biosciences, Colorado).
Treatment groups included (1) applications of MeJA as a foliar spray at a concentration of 7.5 mM, (2) SA as a foliar spray at a concentration of 0.5 mM, (3) SiA as a root drench at a concentration of 3 mM, (4) MeJA as a foliar spray at a concentration of 7.5 mM and a root drench of SiA at a concentration of 3 mM, and (5) MeJA as a foliar spray at a concentration of 7.5 mM and a root drench of SiA at a concentration of 3 mM and foliar applications of SA at a concentration of 0.5 mM. The control group was not treated with any applications aside from normal fertilization. Foliar applications of MeJA were performed in the morning hours, within 30 minutes of daybreak, with applications covering plant leaves until dripping. Applications of SA for all SA treatment groups were performed in the morning hours, within 30 minutes of daybreak, with applications covering plant leaves until dripping. Applications of SiA were performed by hand additions of SiA mixtures at the desired concentration to the plant roots of treatment plants; control plants were treated with plain water in the same volume at the same time without the addition of SiA.
7.5 mM solutions of MeJA (mixture of isomers) were prepared in 1-liter volumes using 93% purity MeJA stock solution (TCI America, CAS #[…]) added to reverse osmosis water dropwise with a pipettor while stirring. The pH of the final solution was not adjusted. 0.5 mM solutions of SA were prepared from a 0.5M stock solution, which was prepared using Salicylic Acid powder (ThermoFisher Scientific, CAS #69-72-7), dissolved in 200-proof anhydrous EtOH, denatured (VWR Life Sciences) and stored in a sealed glass bottle. Plant-useable solution was prepared by diluting 1000 μL, of the stock SA solution in 999 mL of reverse osmosis water. Foliar applications of MeJA and SA were made with a 1-L volume low-pressure hand-pump sprayer (Mondi Products LTD, Canada). Silicic Acid solutions were prepared as needed using Silicic Acid stock powder (extra pure light DAB, Millipore Sigma, CAS #7699-41-4), dissolved in reverse osmosis water to the desired final concentration.
Plants were maintained under identical conditions in the same growing environment. […]

[2] = system: plants from clone (Charlotte x Tangie); assay: Example 4: flower yield / plant weight with varying concentrations of MeJA foliar spray; format: in vivo, Cannabis sativa
From the text: Example 4: Assessment of Flower Yield in plants treated with varying concentrations of MeJA. […] In turn, we designed an experiment to evaluate the efficacy and effectiveness of applying MeJA as a foliar spray to plants in different concentrations.
Fourteen (14) identical plants from clone (Charlotte x Tangie, CBDRx) were cultivated in 1-gallon black plastic pots in a media mixture of 55% coco coir, 45% perlite (Miller Soils LLC, Colorado). Plants were rooted in 1-inch A-OK rockwool cubes (Grodan, B.V.) uniformly prior to transplant into the 1-gallon pots. At the time of transplant, plants were also transitioned from a photoperiod of 18 hours of light per day to a photoperiod of 12 hours of light per day to induce flowering. Each plant was maintained with a standard, commercially available 3-part (4-20-39, CaNO3, MgSO4) nutrient solution at a recommended rate of 350 ppm (Hydro Gardens International, CO), hand watered as needed with 1 L per plant. Plants were randomly assigned to one of four groups, including three treatment groups and one control group: 0 mM MeJA (control), 5 mM MeJA (low), 7.5 mM MeJA (med), and 10 mM MeJA (high). Plants were maintained under identical environmental conditions on a 4′×8′ black plastic table (Botanicare, USA) under 1200 w of light (Gavita Inc, Ne). […]

[3] = day 28, MeJA alone or in conjunction with other elicitors vs non-MeJA treatment, p≤0.05

Compound	terpene production (in words) [1]	Total cannabinoids concentration, change [1, 3]	total CBD concentration, change [1, 3]	total THC concentration, change [1, 3]	Total terpene production, change ([1]; day 28, p≤0.05)	Total CBDA, change ([1]; day 42, MeJA treatments vs no MeJA treatments, p≤0.0005)	Total THC-A, change ([1]; day 42, MeJA treatments vs no MeJA treatments, significance less than 0.0005)	Total cannabinoids (THC, THCA, CBD, CBDA), change ([1]; day 42, groups with MeJA alone or in combination vs groups without MeJA, p≤0.001)	total cannabinoid concentration, change ([1]; day 42, plants that received MeJA treatments (MeJA or MeJA+SiA or MeJA+SiA+SA) vs control group, p≤0.005)	total cannabinoid contents, change ([1]; day 63, some sort of MeJA treatment (MeJA only, MeJA with SiA, or ALL) vs control group, p≤0.05)	total cannabinoid contents, change ([1]; day 63, some sort of MeJA treatment (MeJA only, MeJA with SiA, or ALL) vs no MeJA (control, SA only, SiA only), p≤0.000001)	CBD content, change ([1]; day 63, vs control plants, p≤0.05 (ALL: p≤0.01))	cannabinoid production (in words) ([1]; throughout the flowering cycle, applied alone or in conjunction with other treatments)	impact on plant performance ([2]; exogenous foliar applications, 5-10 mM MeJA)	differences in weights between the treatment groups ([2]; foliar spray 0, 5, 7.5, 10 mM MeJA every 14 days from day 7 of the reproductive cycle)	THCA production (in words) ([1]; applied independently without supplemental MeJA applications)	THCA, change ([1]; day 63, SA treatment plants vs control plants, p≤0.05)
CC/C=C\CC1C(=O)CCC1CC(=O)OC (stereo not shown) [MeJA, Methyl Jasmonate]	increased terpene production	+61.96%	+61.49%	+61.30%	+35%	+54.99%	+56.82%	+54.67%	+41.49%	+33.11%	+58.64%	+23.27%	consistently increased cannabinoid production	did not negatively impact plant performance	No significant differences	–	–
O=C(O)c1ccccc1O [SA, Salicylic acid]	increased terpene production	–	–	–	+35%	–	–	–	–	–	–	–	–	–	–	decreased THCA production	−45.67%
